Results on one compound are retold here after patent US9476050B2, “Combination therapy” (TURUN YLIOPISTO, priority 2011, dated 2016).

What all share (format): cell-based, human
Assay [1] relates to Caspase-3 and -7 activity. In words: Caspase-Glo 3/7 assay in T98G cells. Conditions: PME-1 depletion in combination with STS treatment. The protocol:
Caspase-3 and -7 activity was measured by luminescence based method, which utilize a substrate containing Caspase-3 and -7 target peptide DEVD, named Caspase-Glo 3/7 Assay (Promega Corp.). Assays were performed in white polystyrene 96-well plates (Nunc, Thermo Fisher Scientific Inc.) according to manufacturer's instructions and luminescence was measured with Perkin Elmer Victor2 Plate Reader.

For assay [2], the system named is U118MG glioblastoma cells. In words: Colony formation assay, U118MG. The text has this: (§1) Cells plated in very low density (4-6×10^3) in 6-well plates were allowed to grow for about 7 days until they form small colonies. These cells were then transfected with Scrambled or PME-1 siRNA using Lipofectamine RNAiMAX reagent (Invitrogen) according to the manufacturer's instructions. After 48 hrs, treatments were given with indicated concentration of chemical drugs for another 48 hrs. Cell colonies were washed with PBS, fixed with 3.7% formaldehyde and stained with 0.2% crystal violet solution (made in 10% ethanol) for 15 minutes at room temperature each. Excess stain was removed by repeated washings with PBS. Plates were dried and pictures were taken with Olympus SP-600UZ camera or Epson perfection V700 scanner and analysed with ImageJ.
(§2) The efficacy of this treatment combination was then tested by colony formation assay in T98G glioblastoma cells and another glioblastoma cell line U118MG. For this experiment, these cells were grown in 6-well plates until the formation of small colonies which were then transfected with Scrambled or PME-1 siRNA for 48 hrs followed by treatment with STS at the indicated concentrations for another 48 hrs.

Assay [3] has as its system U251MG glioblastoma cells. The assay can be described thus: Colony formation assay, U251MG. Particulars: scrambled or PME-1 siRNA, then drug 2 days; FIG. 5C.
Source text: as §1

The subject of assay [4] is T98G glioblastoma cells. The assay can be described thus: Colony formation assay, T98G.
Source text: as §1, §2

A further assay concerns U87MG glioblastoma cells. In words: Colony formation assay, U87MG. Particulars: scrambled or PME-1 siRNA, then drug 2 days; FIG. 5D.
Source text: as §1

The subject of assay [5] is T98G glioblastoma cells. The assay can be described thus: Apoptosis assay by sub-G0/G1 fraction estimation (apoptotic nuclear fragmentation, PI staining, FACS). Conditions: for level of apoptosis in PME-1 depleted cells: PME-1 siRNA 48 hrs, then drug 24 hrs, T98G. The protocol: The percentage of the sub-G0/G1 fraction containing fragmented nuclei stained with Propidium iodide (P1) was taken as a measure of apoptotic cells. 3.5-4×10^4 cells were plated in 24-well plates, transfected with siRNA for 48 hrs, and then treated with indicated concentration of test compounds in fresh media. After 24 hrs of treatment, both floating and adherent cells were harvested by centrifugation. Cell pellets were resuspended in 400 μl of hypotonic PI buffer, containing 40 mM Tri-sodium citrate (Merck), 0.3% Triton X-100 (Sigma-Aldrich) and 50 μg/ml Propidium iodide (Sigma-Aldrich) in PBS, and incubated at room temperature for 10 minutes in dark. The flow cytometric analysis of PI stained nuclei was performed and the recorded data was analyzed using a FACScan flow cytometer and software (Becton Dickinson) respectively.
In experiments using pan-caspase inhibitor, cells were kept in growth media containing 30 μM Z-VAD-FMK starting from 18 hrs after transfection till the PI staining. For treatment with PP2A activators FTY720, Sodium Selenate and Xylulose-5-phosphate, cells were kept in respective drugs throughout the experiment starting from 24 hrs after transfection. PP2A inhibitor, Okadaic acid, treatment was given for 24 hrs after 24 hrs of transfection.
The T98G cells transfected with siRNA for 48 hrs were given drug treatments for 24 hrs and were subsequently lysed, and their nuclei were stained using hypotonic propidium iodide buffer. The lysates were analysed for changes in the sub-G0/G1 fraction of fragmented nuclei by flow cytometry (FACS) (FIG. 1B). Condensation and fragmentation of nucleus is a key biochemical feature of apoptosis and sub-G0/G1 analysis has been widely used for detection of apoptosis (FEBS Lett., 1986, 194(2):347-50; Cytometry, 1991, 12(4):323-329; Nature Protocols, 2006, 1:1458-1461).

In assay [6] the test system is T98G glioblastoma cells. The assay can be described thus: Cell viability assay, CellTiter-glo (CTG). Particulars: PME-1 siRNA plus STS treatment. The protocol: Cell viability was determined by CellTiter-glo (CTG) assay which measures the cellular ATP levels as an indicator of metabolically active and viable cells. CTG reagent kit was purchased from Promega Corp. and assays were performed according to their recommendations. Assays were performed in white polystyrene 96-well plates (Nunc, Thermo Fisher Scientific Inc.) and luminescence was measured with Perkin Elmer Victor2 Plate Reader.
For orientation: Cellular ATP, detected with luciferase, serves as a proxy for viable cell number.

The mark [7] stands for this setting: PME-1 depletion or STS treatment alone.
[8] abbreviates: combination of PME-1 siRNA 48 hrs and STS 48 hrs.

Entries after “also recorded” stand apart in the source; their conditions may differ.

On to `CN[C@@H]1C[C@H]2O[C@@](C)([C@@H]1OC)n1c3ccccc3c3c4c(c5c6ccccc6n2c5c31)C(=O)NC4` [Staurosporine, [9S-(9α,10β,11β, 13α)]-2,3,10,11, 12,13-Hexahydro-10-methoxy-9-methyl-11-(methylamino)-9,13-epoxy-1H,9H-diindolo[1,2,3-gh:3′,2′,1′-lm] pyrrolo[3,4-j][1,7] benzodiazonin-1-one], for which the “increase of the activity of Caspase-3/7” value in assay [1] is given as “above 6 fold”. Also, the colony formation ability entry in assay [2] (setting [7]) is “moderately reduced”; in assay [2] (setting [8]), “almost complete loss of colonies”; in the assay on T98G glioblastoma cells [4] (setting [7]) it was “moderately reduced”; in the assay on T98G glioblastoma cells [4] (setting [8]), “almost complete loss of colonies”. For the same compound, the “cell killing activity with PME-1 depletion (colony formation)” value (in assay [3]; in the assay on U87MG glioblastoma cells) was “enhanced the cell killing activity” in each case. Besides, in the assay with T98G glioblastoma cells [5] (50 nM drug, T98G transfected with PME-1 specific dsRNA), the “Potentiation % (apoptotic nuclear fragmentation)” value is 50-60%. The results for the “level of apoptosis in PME-1 depleted cells” value in the assay on T98G glioblastoma cells [5] and in the assay with T98G glioblastoma cells [5] (listed as STS) were “very high level of apoptosis” and “dose dependent manner; also recorded: highly sensitive”, respectively. For the same compound, the “concentration above which STS alone induces cell death” value with T98G glioblastoma cells [5] (control (Scrambled siRNA transfected) T98G cells) was “higher than 50 nM”. Further, the “concentration above which STS alone gives limited amount of cell death” value in the assay on T98G glioblastoma cells [5] (untransfected T98G cells) was “higher than 30 nM”. Besides, the cell viability result in the assay on T98G glioblastoma cells [6] is “drastic decrease”.
